Patent US10328051B2, “Proline or proline derivatives for the treatment of dementia” (priority 2014, dated 2019)

What was measured:
[1] = test system: patients with mild or moderate Alzheimer's disease and Dementia; assay: Physical and cognitive conditions and Quality of Life questionnaire in patients with mild and moderate Alzheimer's disease (Example 13); type: in vivo, human
Text: Example 13—Physical, and Cognitive Conditions—Alzheimer—Dementia Measure and Quality of Life (QoL) (FIGS. 13.1, 13.2, 13.3)
According to the ICH-GCP requirements for assessment of the Quality of Life (QoL) the validated questionnaire related to the disease e.g. cancer have been administered in the Phase II clinical studies: IPSS-A04, according to the example 12.1 in this invention.
Additional developed modules to these questionnaire provided greater details on the particular aspects of quality of life for those patients who participated in these clinical studies and diagnosed with mild and moderate Alzheimer's disease based on the presence of neuropsychiatric symptoms.
Diagnosis begun with a thorough physical exam and complete medical history including cerebrovascular disease and supplemental information from family members. Simple tests of mental function, including word recall, object naming, and number symbol marching, were used to track changes in the patient's cognitive ability. Ruling out depression was part of the diagnosis. Eight (8) patients over the age of 65 years met these criteria and have been selected for the assessment of CHP effects on the quality of life according to the items mentioned below including the cognitive status.
The administration of intravenous (iv) and oral CHP as monotherapy has been scheduled according to examples 12.1 in this invention in the patient's group G2—in study IPSS-A04.
The assessment of the QoL, physical, and cognitive conditions—Alzheimer-Dementia has been completed by the patients/care providers in the following intervals (FIGS. 13.1-13.3):
Pre-dose: Prior to the start of treatment with CHP as monotherapy
Start and completion of treatment with CHP: The questionnaire has been completed every 4 weeks after the start of treatment (Week 4, 8, 12, 16, 20, 24) and 4 weeks upon the completion of the treatment with CHP as monotherapy. A scale value is given for each response that reflects a good quality of life. […] A higher score reflects a higher quality of life. The 5 domains of Quality of Life—Alzheimer's Disease-Dementia included are: 1. Enjoyment of activities, 2. Feelings and mood, 3. Awareness of self, 4. Social Interactions, 5. Illness global QoL.
The following modified QLQ-C30 Version 1.0 has been used for the recording and assessment of the patient's conditions prior to and after the treatment with CHP.

[2] = Pre-dose endogenous plasma concentrations of CHP and THP in healthy volunteers (Study 0202-71), HPLC; type: in vivo, human; conditions: healthy subjects
Protocol: Example 8—Study Title: Determination of Pre-Dose Endogenous Concentrations of CHP in Healthy Volunteers (Study 0202 71) (FIG. 11)
According to the examples in this invention, the following ICH-GCP Clinical Phase I study has been performed in healthy subjects for the assessment of the pharmacokinetic profiles of CHP and THP and the determination of the pre-dose endogenous CHP blood plasma concentrations, which were measured for all healthy volunteers directly before CHP administration using a validated, sensitive and selective HPLC bioanalytical method.
Example 9—Study Title: Determination of Pre-Dose Endogenous Concentrations of THP in Healthy Volunteers (Study 0202 71)—(FIG. 11)
According to the examples in this invention, the following ICH-GCP Clinical Phase I study has been performed in healthy volunteers for the assessment of the pharmacokinetic profiles of THP and to determine the pre-dose endogenous THP plasma concentrations, which were measured for all healthy volunteers directly before CHP administration using a validated, sensitive and selective HPLC bioanalytical method. This was performed before both CHP administrations (i.e. for 2.0 g and 3.0 g). • The mean endogenous THP concentration in healthy subjects, calculated across all dose groups, was 0.97±1.15 μg CHP/ml of plasma.

[3] = Tissue distribution, bioaccumulation and pharmacokinetics following multiple dose administration of 3H-CHP in mice (Study IPSS E015); type: in vivo
Text: Example 2. A Study in Mice on the Tissue Distribution, Bioaccumulation and Pharmacokinetics in Tissues, Connective and BrainTissues Following Multiple Dose Administration of ^3H-CHP Study No. IPSS E015 (FIG. 2)
According to this invention the study has been designed and performed as follows:
From each mouse sacrificed, the following organs & tissues samples were taken:
Liver, kidney, pancreas, limbic system, spinal fluid, brain stem, cerebrum, cerebellum, cartilage, ligaments and tendons (dense or fibrous connective tissue), loose connective tissue, and reticular connective tissue (supports lymph nodes, bone marrow, and spleen)

[4] = test system: patients suffering from cancer, chronic liver diseases (liver fibrosis) and mild Alzheimer's disease/dementia; assay: Phase II clinical studies (Example 12.1-12.4): safety, toxicity (CTC), Quality of Life, immune functions; type: in vivo, human
Text: According to the example No. 12 in this invention, the safety, efficacy and Quality of Life (QoL) of CHP as monotherapy have been investigated in patients suffering from cancer, chronic liver diseases (liver fibrosis) and mild Alzheimer's disease/dementia The following four (4) ICH-GCP
Title: Phase II—CHP as antitumour agent in patients with resected colorectal cancer and liver metastasis; 60 patients—Study IPSS-A04 (Example 12.1).
Title: Phase II—CHP in patients with locally advanced or metastatic pancreatic cancer—14 patients Study IPSS B013 (Example 12.2).
Title: Evaluation of safety and efficacy of CHP in patients with urogenital Cancer—25 patients—Study IPSS-D002 (Example 12.3).
Title: Phase II—CHP in patients with chronic viral hepatitis, chronic alcohol liver diseases without cirrhosis or primary sclerosing cholangitis 45 patients—Study IPSS-B025 (Example 12.4).
According to the examples in this invention, the objectives of these studies were: • Assessment the efficacy and safety of CHP as monotherapy have been investigated in patients suffering from cancer, chronic liver diseases (liver fibrosis) and mild Alzheimer's disease/dementia.
The following validated evaluation systems have been used: • 1. Evaluation of Quality of Life as measured by the FACT questionnaires. • 2. Evaluation of the toxicity and safety of CHP treatment as measured by the Common Toxicity Criteria CTC. • Subjective assessments mild Alzheimer' patients: Overall physical conditions, Cognitive conditions, Quality of Life (QoL)
According to the study protocols for the performance of these studies, oral and intravenous CHP as monotherapy have been administered to the patients at high doses e.g. 8 gram/day for approximately 180 consecutive days. A number of patients have received the medication for approximately 18 months as mono therapy.

[5] = after completion of treatment, 8 patients, pre dose 0
[6] = after completion of treatment, 8 patients, pre dose 3
[7] = after completion of treatment, 8 patients, pre-dose 0
[8] = repeated oral dose of 3H-CHP for 7 consecutive days

O=C(O)[C@@H]1C[C@H](O)CN1 [CHP, cis-4-hydroxy-L-proline]
Overall Physical Condition: number of patients rating 5 [1, 5]: 5
Overall Physical Condition: number of patients rating 6 [1, 5]: 1
Overall Physical Condition: number of patients rating 7 [1, 5]: 0
Overall Quality of Life (QoL): number of patients rating 4 [1, 5]: 3
Overall Quality of Life (QoL): number of patients rating 5 [1, 5]: 3
Overall Quality of Life (QoL): number of patients rating 6 [1, 5]: 2
Overall Quality of Life (QoL): number of patients rating 7 [1, 5]: 0
Overall Physical Condition: number of patients rating 3 [1, 6]: 1
Overall Physical Condition: number of patients rating 4 [1, 6]: 1
Overall Quality of Life (QoL): number of patients rating 3 [1, 6]: 0
Overall Cognitive Conditions: number of patients rating 5 [1, 7]: 3
Overall Cognitive Conditions: number of patients rating 6 [1, 7]: 1
Overall Cognitive Conditions: number of patients rating 7 [1, 7]: 0
Overall Cognitive Conditions: number of patients rating 4 ([1]; after completion of treatment, 8 patients, pre-dose 1): 3
Overall Cognitive Conditions: number of patients rating 3 ([1]; after completion of treatment, 8 patients, pre-dose 3): 1
Overall Physical Condition: number of patients rating 2 ([1]; after completion of treatment, scale 1 = Very poor 7 = Excellent, 8 patients, pre dose 2): 0
Overall Quality of Life (QoL): number of patients rating 2 ([1]; after completion of treatment, scale 1 = Very poor 7 = Excellent, 8 patients, pre dose 5): 0
Overall Cognitive Conditions: number of patients rating 2 ([1]; after completion of treatment, scale 1 = Very poor 7 = Excellent, 8 patients, pre-dose 4): 0
Cognitive, physical, emotional conditions and quality of life in comparison to status prior to the start of the treatment ([1]; oral and/or intravenous CHP monotherapy, 90-540 consecutive days, 2-12 gram per day, mild or moderate Alzheimer's disease and dementia): significant improvement
Adverse events ([1]; patients with mild or moderate Alzheimer's disease): Only mild adverse events
Average Cmax, molar equivalent in blood ([2]; Study 0202-71): 462.2±212.1 μM CHP/ml blood
Average Cmax ([2]; Study 0202-71, after CHP administration): 30.29±13.91 μg CHP/ml plasma
Penetration of the BBB ([3]; repeated dose of oral aqueous solution of 3H-CHP): Excellent penetration of the BBB
AUC as % of total administered CHP in cerebrum, cerebelium, brain stem, limbic system and spinal fluid [3, 8]: 14.9%
AUC as % of total administered CHP in loose connective tissues, cartilage, reticular connective tissue, dense/fibrous connective tissue, bone and bone marrow [3, 8]: 35%
Half-Life time in cerebrum, cerebelium, brain stem and limbic system [3, 8]: 32.30 to 42.70 h
Immunological activities ([4]; Examples 12.1-12.4): increase of the immunological activities of interleukin-2, Interleukin-12, and Interferon-alpha
Patients' Quality of Life (QoL questionnaires) ([4]; Phase II clinical studies): improved drastically
Toxicity and safety as measured by the Common Toxicity Criteria CTC ([4]; Phase II clinical studies): has not cause any nephrotoxicity, neurotoxicity, hepatotoxicity, cardiotoxicity and/or laboratory abnormalities
Side effects observed ([4]; Phase II clinical studies, CHP monotherapy): Only mild side effects such as nausea and/or vomiting
Tolerability ([4]; all clinical studies, mostly patients over 60 years, e.g. 8 gram/day for approximately 180 consecutive days, oral and intravenous monotherapy): excellent tolerability
Drug-drug interactions on co-administration with drugs used by the patients ([4]; mostly elderly patients): no drug-drug interactions have been observed
